Reference: the supplement of paper PMC10307832

How the values were obtained:
Test in all cases: relative viability (nuclei count vs DMSO), 5 days (fraction); higher = more cells survive
[1] = compound: Cn1nnc2c(C(N)=O)ncn2c1=O [Temozolomide] + Nc1nc2[nH]cc(CCc3ccc(C(=O)N[C@@H](CCC(=O)O)C(=O)O)cc3)c2c(=O)[nH]1 [Pemetrexed] (partner 0.2 µM)
Outline: (§1)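 Lung cancer cell lines in 1536-well plates were dosed by pin tool the day after seeding, either with one drug alone or with a fixed anchor-drug dose plus five library-drug doses (not always all listed) in √10 steps. After 5 days, cells were fixed and their nuclei stained in one step (final 0.05% Triton X-100, 1% formaldehyde, 1 ug/ml Hoechst), then counted on 4× images. Relative viability is the nuclei count in treated wells divided by that in vehicle wells. Values are medians of duplicate plates.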

AZD5582 + Pemetrexed = compound: C[C@@H](C(=O)N[C@@H](C1CCCCC1)C(=O)N2CCC[C@H]2C(=O)N[C@@H]3[C@@H](CC4=CC=CC=C34)OCC#CC#CCO[C@@H]5CC6=CC=CC=C6[C@@H]5NC(=O)[C@@H]7CCCN7C(=O)[C@H](C8CCCCC8)NC(=O)[C@H](C)NC)NC [AZD5582] + Nc1nc2[nH]cc(CCc3ccc(C(=O)N[C@@H](CCC(=O)O)C(=O)O)cc3)c2c(=O)[nH]1 [Pemetrexed] (partner 0.2 µM)
Outline: as §1

Temozolomide + Foretinib = compound: Cn1nnc2c(C(N)=O)ncn2c1=O [Temozolomide] + COc1cc2c(Oc3ccc(NC(=O)C4(C(=O)Nc5ccc(F)cc5)CC4)cc3F)ccnc2cc1OCCCN1CCOCC1 [Foretinib] (partner 0.25 µM)
Outline: as §1

[2] = compound: Cn1nnc2c(C(N)=O)ncn2c1=O [Temozolomide] + Cc1cc(Nc2cc(N3CCN(C)CC3)nc(Sc3ccc(NC(=O)C4CC4)cc3)n2)n[nH]1 [Tozasertib] (partner 0.1 µM)
Outline: as §1

Cell Line	relative viability ([1]; first compound 0.2 µM)	relative viability ([1]; first compound 0.6325 µM)	relative viability ([1]; first compound 2 µM)	relative viability ([1]; first compound 6.325 µM)	relative viability ([1]; first compound 20 µM)	relative viability (AZD5582 + Pemetrexed; first compound 0.001581 µM)	relative viability (AZD5582 + Pemetrexed; first compound 0.005 µM)	relative viability (AZD5582 + Pemetrexed; first compound 0.01581 µM)	relative viability (AZD5582 + Pemetrexed; first compound 0.05 µM)	relative viability (Temozolomide + Foretinib; first compound 0.2 µM)	relative viability (Temozolomide + Foretinib; first compound 0.6325 µM)	relative viability (Temozolomide + Foretinib; first compound 2 µM)	relative viability (Temozolomide + Foretinib; first compound 6.325 µM)	relative viability (Temozolomide + Foretinib; first compound 20 µM)	relative viability ([2]; first compound 0.2 µM)	relative viability ([2]; first compound 0.6325 µM)	relative viability ([2]; first compound 2 µM)	relative viability ([2]; first compound 6.325 µM)	relative viability ([2]; first compound 20 µM)
NCI-H2228	0.383	0.349	0.348	0.266	0.352	0.281	0.285	0.305	0.21	1.05	1.05	0.854	0.691	0.961	0.246	0.322	0.206	0.212	0.251
PC-14	0.138	0.12	0.138	0.145	0.14	0.105	0.112	0.14	0.101	1.07	0.98	1.03	1.01	0.202	0.439	0.608	0.558	0.293	0.0992
EKVX	–	0.38	0.352	0.388	0.305	0.382	0.39	0.344	0.375	0.485	0.799	0.748	0.722	0.356	0.256	0.395	0.385	0.335	0.42
